Data: patent US10144737B2 (ETERNITY BIOSCIENCE INC., priority 2014, dated 2018)

How the values were obtained:
TMD-8 cells = test: Cell proliferation assay (CellTiter-Glo), TMD-8 cells; format: cell-based; settings: Homo sapiens, TMD8, 120 h, 5-day treatment, read-out: TMD8 cell growth (GI50 μM)
How it was run: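 TMD-8 cells seeded at 5,000–10,000/well, cultured overnight, then exposed to compound (vehicle 0.5% DMSO) for 5 days at 37 °C. Growth read by CellTiter-Glo luminescence; IC50 from log concentration versus % growth inhibition relative to vehicle.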

Btk = target: T1, Btk (Homo sapiens, UniProt Q06187); test: Btk kinase assay (ADP-Glo); format: biochemical; settings: ADP-Glo Btk kinase assay kit; ATP 1.2 μM; 60 minutes at room temperature
T1 construct: purchased Promega (Madison, Wis.)
T1 sequence (Q06187 whole entry): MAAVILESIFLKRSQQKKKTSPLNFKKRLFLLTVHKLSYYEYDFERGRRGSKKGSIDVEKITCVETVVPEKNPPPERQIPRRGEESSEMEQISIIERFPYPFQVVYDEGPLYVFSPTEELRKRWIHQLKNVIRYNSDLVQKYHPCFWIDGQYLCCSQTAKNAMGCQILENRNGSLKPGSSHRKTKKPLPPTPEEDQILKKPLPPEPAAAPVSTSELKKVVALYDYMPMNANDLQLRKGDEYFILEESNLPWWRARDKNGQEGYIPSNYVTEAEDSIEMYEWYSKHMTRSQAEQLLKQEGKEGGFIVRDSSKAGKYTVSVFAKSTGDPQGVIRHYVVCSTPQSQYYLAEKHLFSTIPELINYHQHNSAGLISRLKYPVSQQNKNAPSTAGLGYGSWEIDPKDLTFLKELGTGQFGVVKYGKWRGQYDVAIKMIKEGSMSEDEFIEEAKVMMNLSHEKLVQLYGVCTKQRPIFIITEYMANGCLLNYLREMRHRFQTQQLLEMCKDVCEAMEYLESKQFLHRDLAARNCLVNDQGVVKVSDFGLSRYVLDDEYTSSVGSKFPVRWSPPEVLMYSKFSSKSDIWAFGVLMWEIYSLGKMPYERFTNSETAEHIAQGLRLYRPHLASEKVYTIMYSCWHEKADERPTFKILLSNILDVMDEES
How it was run: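 Luminescent ADP detection after a 60 min reaction at 22±1 °C containing Btk 2 ng/μl, 1.2 μM ATP, 0.3 μM poly GT peptide and 1.4 mM MnCl2. IC50 from log concentration versus percent inhibition relative to DMSO vehicle.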

Compound | GI50 (TMD-8 cells) [µM] | IC50 (Btk) [µM]
C=CC(=O)N1CC[C@@H](Nc2ncnc3[nH]c(C#CCOc4cccc5c4OCO5)cc23)C1 [Example 83, (R)-1-(3-((6-(3-(benzo[d][1,3]dioxol-4-yloxy)prop-1-yn-1-yl)-7H-pyrrolo[2,3-d]pyrimidin-4-yl)amino)pyrrolidin-1-yl)prop-2-en-1-one] | 0.0017 | 0.008
C=CC(=O)N1CC[C@@H](Nc2ncnc3[nH]c(C#CCOC4CCCCO4)cc23)C1 (stereo partly drawn) [Example 84, 1-((3R)-3-((6-(3-((tetrahydro-2H-pyran-2-yl)oxy)prop-1-yn-1-yl)-7H-pyrrolo[2,3-d]pyrimidin-4-yl)amino)pyrrolidin-1-yl)prop-2-en-1-one] | 1.09 | 0.136
C#CC(=O)N1CC[C@@H](Nc2ncnc3[nH]c(C#CCOc4ccccc4F)cc23)C1 [Example 85, (R)-1-(3-((6-(3-(2-fluorophenoxy)prop-1-yn-1-yl)-7H-pyrrolo[2,3-d]pyrimidin-4-yl)amino)pyrrolidin-1-yl)prop-2-yn-1-one] | 0.091 | 0.007
C=CC(=O)N1CC[C@@H](Nc2ncnc3[nH]c(C#CCn4ncc5ccccc54)cc23)C1 [Example 86, (R)-1-(3-((6-(3-(1H-indazol-1-yl)prop-1-yn-1-yl)-7H-pyrrolo[2,3-d]pyrimidin-4-yl)amino)pyrrolidin-1-yl)prop-2-en-1-one] | 0.018 | 0.018
C=CC(=O)N1CC[C@@H](Nc2ncnc3[nH]c(C#CCOc4ccccc4C(F)(F)F)cc23)C1 [Example 87, (R)-1-(3-((6-(3-(2-(trifluoromethyl)phenoxy)prop-1-yn-1-yl)-7H-pyrrolo[2,3-d]pyrimidin-4-yl)amino)pyrrolidin-1-yl)prop-2-en-1-one] | 0.002 | 0.043
C=CC(=O)N1CC[C@@H](Nc2ncnc3[nH]c(C#CCOc4c(F)cccc4OC)cc23)C1 [Example 88, (R)-1-(3-((6-(3-(2-fluoro-6-methoxyphenoxy)prop-1-yn-1-yl)-7H-pyrrolo[2,3-d]pyrimidin-4-yl)amino)pyrrolidin-1-yl)prop-2-en-1-one] | 0.02 | 0.018
C=CC(=O)N1CC[C@@H](Nc2ncnc3[nH]c(C#CCOc4cccc5sccc45)cc23)C1 [Example 89, (R)-1-(3-((6-(3-(benzo[b]thiophen-4-yloxy)prop-1-yn-1-yl)-7H-pyrrolo[2,3-d]pyrimidin-4-yl)amino)pyrrolidin-1-yl)prop-2-en-1-one] | 0.006 | 0.148
C=CC(=O)N1CC[C@@H](Nc2ncnc3[nH]c(C#CCOc4c(F)cccc4F)cc23)C1 [Example 90, (R)-1-(3-((6-(3-(2,6-difluorophenoxy)prop-1-yn-1-yl)-7H-pyrrolo[2,3-d]pyrimidin-4-yl)amino)pyrrolidin-1-yl)prop-2-en-1-one] | 0.014 | 0.014
C=CC(=O)N1CC[C@@H](Nc2ncnc3[nH]c(C#CCOc4cccc(F)c4F)cc23)C1 [Example 91, (R)-1-(3-((6-(3-(2,3-difluorophenoxy)prop-1-yn-1-yl)-7H-pyrrolo[2,3-d]pyrimidin-4-yl)amino)pyrrolidin-1-yl)prop-2-en-1-one] | 0.0015 | 0.008
C=CC(=O)N1CC[C@@H](Nc2ncnc3[nH]c(C#CCOc4cc(F)ccc4F)cc23)C1 [Example 92, (R)-1-(3-((6-(3-(2,5-difluorophenoxy)prop-1-yn-1-yl)-7H-pyrrolo[2,3-d]pyrimidin-4-yl)amino)pyrrolidin-1-yl)prop-2-en-1-one] | 0.0038 | 0.043
O=C(C1CC1)N1CC[C@@H](Nc2ncnc3[nH]c(C#CCOc4ccccc4F)cc23)C1 [Example 93, (R)-cyclopropyl(3-((6-(3-(2-fluorophenoxy)prop-1-yn-1-yl)-7H-pyrrolo[2,3-d]pyrimidin-4-yl)amino)pyrrolidin-1-yl)methanone] | 4.2 | 0.578
O=C([C@H]1C[C@H]1F)N1CC[C@@H](Nc2ncnc3[nH]c(C#CCOc4ccccc4F)cc23)C1 [Example 94, ((1R,2R)-2-fluorocyclopropyl)((R)-3-((6-(3-(2-fluorophenoxy)prop-1-yn-1-yl)-7H-pyrrolo[2,3-d]pyrimidin-4-yl)amino)pyrrolidin-1-yl)methanone] | 3.58 | 0.346
C=CC(=O)N1CCC[C@@H](Nc2ncnc3[nH]c(C#Cc4ccccc4)cc23)C1 [Example 96, (R)-1-(3-((6-(phenylethynyl)-7H-pyrrolo[2,3-d]pyrimidin-4-yl)amino)piperidin-1-yl)prop-2-en-1-one] | 0.066 | 0.014
C=CC(=O)N1CCC[C@@H](Nc2ncnc3[nH]c(C#Cc4ccc5c(c4)OCO5)cc23)C1 [Example 97, (R)-1-(3-((6-(benzo[d][1,3]dioxol-5-ylethynyl)-7H-pyrrolo[2,3-d]pyrimidin-4-yl)amino)piperidin-1-yl)prop-2-en-1-one] | 0.004 | 0.027
C=CC(=O)N1CC[C@@H](Nc2ncnc3[nH]c(C#CCOc4c(F)cccc4F)nc23)C1 [Example 98, (R)-1-(3-((8-(3-(2,6-difluorophenoxy)prop-1-yn-1-yl)-9H-purin-6-yl)amino)pyrrolidin-1-yl)prop-2-en-1-one] | 0.005 | 0.006
C=CC(=O)N1CC[C@@H](Nc2ncnc3[nH]c(C#CCOc4cccc(F)c4F)nc23)C1 [Example 99, (R)-1-(3-((8-(3-(2,3-difluorophenoxy)prop-1-yn-1-yl)-9H-purin-6-yl)amino)pyrrolidin-1-yl)prop-2-en-1-one] | 0.001 | 0.0003
C=CC(=O)N1CC[C@@H](Nc2ncnc3[nH]c(C#CCOc4cccc(F)c4Cl)nc23)C1 [Example 100, (R)-1-(3-((8-(3-(2-chloro-3-fluorophenoxy)prop-1-yn-1-yl)-9H-purin-6-yl)amino)pyrrolidin-1-yl)prop-2-en-1-one] | 0.006 | 0.032
C=CC(=O)N1CC[C@@H](Nc2ncnc3[nH]c(C#CCOc4ccccc4F)nc23)C1 [Example 101, (R)-1-(3-((8-(3-(2-fluorophenoxy)prop-1-yn-1-yl)-9H-purin-6-yl)amino)pyrrolidin-1-yl)prop-2-en-1-one] | 0.003 | 0.001
C=CC(=O)N1CC[C@@H](Nc2ncnc3[nH]c(C#CCOc4ccccc4OC)nc23)C1 [Example 102, (R)-1-(3-((8-(3-(2-methoxyphenoxy)prop-1-yn-1-yl)-9H-purin-6-yl)amino)pyrrolidin-1-yl)prop-2-en-1-one] | 0.004 | 0.0002
C=CC(=O)Nc1cccc(Nc2ncnc3[nH]c(C#Cc4ccccc4)cc23)c1 [Example 103, N-(3-((6-(phenylethynyl)-7H-pyrrolo[2,3-d]pyrimidin-4-yl)amino)phenyl)acrylamide] | 0.079 | 0.0003
C=CC(=O)Nc1cccc(Nc2ncnc3[nH]c(C#Cc4ccsc4)cc23)c1 [Example 104, N-(3-((6-(thiophen-3-ylethynyl)-7H-pyrrolo[2,3-d]pyrimidin-4-yl)amino)phenyl)acrylamide] | 0.017 | 0.006
C=CC(=O)Nc1cccc(Nc2ncnc3[nH]c(C#Cc4ccc(Cl)cc4)cc23)c1 [Example 105, N-(3-((6-((4-chlorophenyl)ethynyl)-7H-pyrrolo[2,3-d]pyrimidin-4-yl)amino)phenyl)acrylamide] | 0.048 | 0.155
